Measured values published in patent US10829506B2, “Amino- or ammonium-containing sulfonic acid, phosphonic acid and carboxylic acid derivatives and their medical use” (GRI Bio, Inc., priority 2011, dated 2020).

Columns and labels:
[1] = system: RBL-2H3 cells; test: Inhibition of mast cell degranulation (β-hexosaminidase release); format: cell-based, rat; details: Rattus norvegicus, RBL-2H3 cells sensitized with anti-DNP IgE, triggered with DNP-HSA, 1 h preincubation
From the text: Mast cells are key effector cells involved in allergic and inflammatory diseases, and the Rat Basophilic Leukemia clone 2H3 (RBL-2H3) cell line is a commonly used model of allergen dependent immune modulator release (degranulation) in mast cells. On their surface, they express the high affinity receptor for IgE (FcεRI). Upon binding of antigen-specific IgE to the receptor, cells become sensitized to the IgE specific antigen (allergen). When IgE-sensitized cells then encounter multivalent antigen, the antigen clusters IgE-FcεRI complexes and initiates a signal transduction cascade that leads to degranulation, that is, the release of inflammatory mediators, such as cytokines, eicosanoids, histamine and enzymes. The assay can be used as a screening method to identify immune-modulating compounds, in particular compounds useful in the medical management of allergic and inflammatory diseases and asthma, β-hexosaminidase was previously shown to be released with the same kinetics as histamine (Schwartz et al., J Immunology; 123:1445-1450 (1979)), thus offering a simple means to monitor degranulation. The RBL-2H3 cell line has been successfully used to identify compounds with anti-allergic activity (Choo et al. Planta Med., 69:518-522 (2003)).
Cell Culture: RBL-2H3 cells obtained from the German Collection of Microorganisms and Cell Cultures (ACC312) (Braunschweig, Germany) were maintained in 70% Minimum Essential Medium with Earle's Salts, 20% RPMI 1640 Medium, 10% FBS and 2 mM l-glutamine in 95% air/5% CO2 at 37° C. and routinely checked for mycoplasma contamination. Cells were passaged every 3-4 days; after washing cells once with 35 ml PBS cells were incubated 8 min with 5 ml 0.05% Trypsin-EDTA solution at 37° C. Cells were removed from the incubator, 15 ml culture medium was added and cells were resuspended by repeated pipetting.
Cell seeding: cells were harvested with Trypsin-EDTA as described and 50-100 μl cell suspension seeded Into Costar CellBind 24 well cluster plates (no. 3337). Plates were kept for 30 min at RT under the sterile hood before being transferred to the incubator. Cells were used within one or two days after seeding.
For sensitization, cells for immediate use were sensitized 6-12 h after plating; cells to be used the following day were sensitized 26-38 h after plating. Culture plates were removed from the incubator and checked for cell growth and contamination. The medium was discarded and cells were sensitized with anti-DNP IgE (0.4 μg/ml) in 0.4 ml culture medium overnight. Following overnight sensitization, cells were washed with 0.8 ml pre-warmed TyB and 0.38 ml test compound or vehicle control (supplemented or not with 1% FBS) were added to duplicate wells. Samples were adjusted to contain 1% vehicle for test compounds dissolved in organic solvents. Cells were incubated for 1 h at 37° C. At the end of the incubation period, cells were routinely stimulated with 20 μl DNP-HSA (2 μg/ml; final concentration 0.1 μg/ml) diluted in TyB and cells were incubated for 15 min at 37° C. Alternatively, cells were stimulated with 20 μl […] (final concentration 0.25 μM) or 20 nM […] (final concentration 0.25 μM), both in the absence or presence of 20 nM PMA (final concentration).
Plates were removed from the incubator and immediately centrifuged at 4° C. for 5 min at 250×g and transferred to an ice bath. Aliquots of supernatants, 25 μl, were transferred to 96-well plates. Remaining supernatant was aspirated from control wells and cells were lysed in […] lysis buffer for 5 min at RT on an orbital shaker at 450 rpm under non-sterile conditions. After lysis, 25 μl aliquots of lysates were transferred to 96-well plates.
MUG substrate solution, 100 μl, were added to supernatant and lysate samples and plates were incubated 30 min at 37° C. The reaction was terminated by addition of 150 μl stop solution. Fluorescence was measured at 365 nm excitation and 440 nm emission wavelengths. […]

[2] = system: RBL-2H3 cells; test: Maximum tolerated concentration (cytotoxicity by lactate dehydrogenase release); format: cell-based, rat
From the text: A commercially available cytotoxicity test was used (Promega Cytotox-One cat. #67891).
The safety index (SI) of a test compound Is the ratio between the maximum tolerated concentration and the 1C50 and is used as a measure of the relative safety of the test compound.

[3] = system: BALB/c-mice; test: Local lymph node weight and cell count after TDI challenge; format: in vivo
Method: Directly after sacrifice, the ear draining lymph node (Ln. auricufaris) was prepared and excised. Organ weight was determined by means of an analytical balance (Kern, Balingen, Germany). Single cell suspensions were prepared by means of a glass potter (VWR, Darmstadt, Germany) and cells were counted with a hemocytometer (Neubauer, V W R, Germany).
One of the most undesirable side-effects of corticosteroid administration is immunosuppression, which leads to the inability to effectively address parasitic infection, wound healing and tumor growth. In the current study, the local lymph node reaction after TDI challenge (lymph node weight and cell number) was determined to assess the response of immune organs.

CCCCCCCCCCCCCC[N+](C)(C)CCCS(=O)(=O)[O-] [Compound 1a, 3-(N,N-Dimethylmyristylammonio)-Propanesulfonate]
IC50 [1]: 3.2 µM
MTC (maximum tolerated concentration) ([2]; highest concentration not causing cytotoxicity, LDH release): 100 µM
SI (safety index, ratio MTC/IC50) ([2]; ratio between maximum tolerated concentration and IC50): 31.3
Local lymph node reaction (lymph node weight and cell number) ([3]; systemic treatment at 100 mg/kg): did not have any impact
Local lymph node reaction (lymph node weight and cell number) ([3]; topical treatment at 2% or 6%): did not have any impact
